Experimental data from US11319321B2, “[1,2,4]triazolo[1,5-a]pyrimidine compounds as PDE2 inhibitors” (Janssen Pharmaceutica NV, priority 2016, dated 2022).
Where two headings read alike, the source gives them in different places.

How the values were obtained:
hPDE3B = assay: In vitro assay PDE3 (SPA, 3H-cAMP); format: biochemical, human; conditions: 0.4 μM cAMP substrate; for hPDE3B Emax: in % (unit assumed)
hPDE10A2 = hPDE10A2 (Homo sapiens, UniProt Q9Y233); assay: biochemical; conditions: 60 nM cAMP substrate; for IC50: human clone, read-out: hPDE10A2 or rPDE10A2 pIC50 (converted); for Emax: read-out: hPDE10A2 or rPDE10A2 Emax, human clone
Procedure: Rat recombinant PDE10A (rPDE10A2) was expressed in Sf9 cells using a recombinant rPDE10A baculovirus construct. Cells were harvested after 48 h of infection and the rPDE10A protein was purified by metal chelate chromatography on Ni-sepharose 6FF. Tested compounds were dissolved and diluted in 100% DMSO to a concentration 100 fold of the final concentration in the assay. Human recombinant PDE10A ([…]) was expressed in Sf9 cells using a recombinant hPDE10A baculovirus that was made and amplified in house. Cells were harvested after 72 h of infection and the hPDE10A protein was purified by metal chelate chromatography on Ni-sepharose. Compound dilutions (0.4 μl) were added in 384 well plates to 20 μl of incubation buffer (50 mM Tris pH 7.8, 8.3 mM MgCl2, 1.7 mM EGTA). 10 μl of rPDE10A or hPDE10A enzyme in incubation buffer was added and the reaction was started by addition of 10 μl substrate to a final concentration of 60 nM cAMP and […] ^3H-cAMP. The reaction was incubated for 60 minutes at room temperature. After incubation, the reaction was stopped with 20 μl of stop solution consisting of 17.8 mg/ml PDE SPA (scintillation proximity assay) beads. After sedimentation of the beads during 30 minutes the radioactivity was measured in a Perkin Elmer Topcount scintillation counter and results were expressed as cpm. For blanc values the enzyme was omitted from the reaction and replaced by incubation buffer. Control values were obtained by addition of a final concentration of 1% DMSO instead of compound. A best fit curve is fitted by a minimum sum of squares method to the plot of % of control value substracted with blanc value versus compound concentration and the half maximal inhibitory concentration (IC50) value is derived from this curve.

[1] = target: T1, Human recombinant PDE2A (hPDE2A) (Homo sapiens, UniProt O00408); assay: In vitro assay PDE2A (SPA, 3H-cGMP); format: biochemical
T1 construct: made in house; host or cells: Sf9 insect cells (baculovirus)
Procedure: Human recombinant PDE2A (hPDE2A) was expressed in Sf9 cells using a recombinant rPDE10A baculovirus construct. Cells were harvested after 48 h of infection and the hPDE2A protein was purified by metal chelate chromatography on Ni-sepharose 6FF. Tested compounds were dissolved and diluted in 100% DMSO to a concentration 100 fold of the final concentration in the assay. Compound dilutions (0.4 μl) were added in 384 well plates to 20 μl of incubation buffer (50 mM Tris pH 7.8, 8.3 mM MgCl2, 1.7 mM EGTA). 10 μl of hPDE2A enzyme in incubation buffer was added and the reaction was started by addition of 10 μl substrate to a final concentration of 10 μM cGMP and 0.01 μCi ^3H-cGMP. The reaction was incubated for 45 minutes at room temperature. […] After sedimentation of the beads during 30 minutes the radioactivity was measured in a Perkin Elmer Topcount scintillation counter and results were expressed as cpm. For blanc values the enzyme was omitted from the reaction and replaced by incubation buffer. Control values were obtained by addition of a final concentration of 1% DMSO instead of compound.

[2] = hPDE2A pIC50, 10 μM cGMP substrate
[3] = 10 μM cGMP substrate, read-out: hPDE2A pIC50 (converted)

T1 sequence (O00408 whole entry): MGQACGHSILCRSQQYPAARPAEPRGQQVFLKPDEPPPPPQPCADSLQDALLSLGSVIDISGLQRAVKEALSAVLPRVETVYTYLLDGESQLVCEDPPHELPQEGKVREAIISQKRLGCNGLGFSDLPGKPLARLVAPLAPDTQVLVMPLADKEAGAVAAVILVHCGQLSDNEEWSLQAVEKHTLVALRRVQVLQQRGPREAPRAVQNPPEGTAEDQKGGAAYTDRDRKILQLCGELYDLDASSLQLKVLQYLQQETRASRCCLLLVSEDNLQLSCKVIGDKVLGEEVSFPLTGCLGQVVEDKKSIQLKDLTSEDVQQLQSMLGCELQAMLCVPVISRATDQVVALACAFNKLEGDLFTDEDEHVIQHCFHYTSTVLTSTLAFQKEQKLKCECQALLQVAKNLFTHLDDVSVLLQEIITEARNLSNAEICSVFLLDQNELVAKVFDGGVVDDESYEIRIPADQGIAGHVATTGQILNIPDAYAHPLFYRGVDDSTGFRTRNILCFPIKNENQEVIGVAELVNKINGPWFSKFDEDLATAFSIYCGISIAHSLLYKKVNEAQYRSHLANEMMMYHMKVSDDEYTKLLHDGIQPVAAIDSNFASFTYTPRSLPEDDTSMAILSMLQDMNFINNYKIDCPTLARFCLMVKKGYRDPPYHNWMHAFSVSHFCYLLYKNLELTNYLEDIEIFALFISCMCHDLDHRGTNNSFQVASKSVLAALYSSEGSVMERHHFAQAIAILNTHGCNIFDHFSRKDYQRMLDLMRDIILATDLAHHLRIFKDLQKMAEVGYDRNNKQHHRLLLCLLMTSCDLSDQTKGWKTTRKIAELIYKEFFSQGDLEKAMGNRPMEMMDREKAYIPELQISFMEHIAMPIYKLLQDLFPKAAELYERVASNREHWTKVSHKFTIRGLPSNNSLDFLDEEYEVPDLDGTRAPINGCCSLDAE
hPDE10A2, sequence (Q9Y233 267-1055): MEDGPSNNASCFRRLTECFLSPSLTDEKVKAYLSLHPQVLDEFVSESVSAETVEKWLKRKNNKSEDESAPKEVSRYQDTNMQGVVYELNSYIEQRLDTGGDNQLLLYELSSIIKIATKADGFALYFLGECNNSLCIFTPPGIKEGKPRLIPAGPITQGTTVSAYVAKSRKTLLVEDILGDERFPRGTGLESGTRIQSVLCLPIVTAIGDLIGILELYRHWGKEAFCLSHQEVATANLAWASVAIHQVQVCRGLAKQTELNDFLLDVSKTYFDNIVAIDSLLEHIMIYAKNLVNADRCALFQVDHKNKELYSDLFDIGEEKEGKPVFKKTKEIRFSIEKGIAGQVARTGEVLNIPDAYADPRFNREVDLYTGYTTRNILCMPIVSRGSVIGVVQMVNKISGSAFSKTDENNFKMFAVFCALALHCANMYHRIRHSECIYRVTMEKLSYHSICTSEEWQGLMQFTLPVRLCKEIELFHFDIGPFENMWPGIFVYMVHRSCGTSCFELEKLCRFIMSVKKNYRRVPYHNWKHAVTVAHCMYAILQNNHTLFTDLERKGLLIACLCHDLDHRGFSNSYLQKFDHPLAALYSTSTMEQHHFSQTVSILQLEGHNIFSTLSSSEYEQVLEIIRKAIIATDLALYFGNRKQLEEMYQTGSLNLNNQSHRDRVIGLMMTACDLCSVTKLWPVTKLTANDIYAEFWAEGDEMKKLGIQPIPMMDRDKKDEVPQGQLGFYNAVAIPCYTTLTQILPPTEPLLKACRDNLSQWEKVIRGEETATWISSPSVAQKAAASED

| Structure (SMILES) | hPDE3B pIC50 (hPDE3B) | hPDE3B Emax (hPDE3B) | IC50 (hPDE10A2) [µM] | Emax (hPDE10A2) [%] | IC50 [1] [µM] | Emax ([1]; 10 μM cGMP substrate) [%] | IC50 [1, 2] [µM] | IC50 [1, 3] [µM] |
| --- | --- | --- | --- | --- | --- | --- | --- | --- |
| C[C@@H]1CCN(Cc2cccc(OC(F)F)c2)C[C@H]1c1cc(C(F)F)nc2ncnn12 [Compound 22] | <5 | 42 | 7.76 | 61 | 0.562 | 95 |  |  |
| COc1ccc(CN2CC[C@@H](C)[C@@H](c3cc(C(F)F)nc4ncnn34)C2)c(OC)c1 [Compound 47] | <5 | 27 | > 10 | 37 |  | 25 | ~3.47 |  |
| C[C@@H]1CCN(Cc2nccc3ccccc23)C[C@H]1c1cc(C(F)F)nc2ncnn12 [Compound 19] | <5 | 35 | 8.51 | 58 | 0.324 | 96 |  |  |
| C[C@@H]1CCN(Cc2ccc(F)c(C(F)(F)F)c2)C[C@H]1c1cc(C(F)F)nc2ncnn12 [Compound 30] | <5 | 21 | 7.94 | 55 | 0.49 | 99 |  |  |
| Cc1cc([C@H](C)N2CC[C@@H](C)[C@H](c3cc(C(F)F)nc4ncnn34)C2)cc(Cl)n1 (single isomer, unassigned) [Compound 4] | <5 | 45 | 1.1 | 88 |  | 99 |  | 0.00776 |
| Cc1cc(CN2CC[C@@H](C)[C@H](c3cc(C(F)F)nc4ncnn34)C2)cc(Cl)n1.Cl [Compound 10] | <5 | 19 | 1.58 | 82 | 0.0245 | 96 |  |  |
| Cc1cc([C@H](C)N2CC[C@@H](C)[C@H](c3cc(C(F)F)nc4ncnn34)C2)cc(C2CC2)n1 (relative stereo) [Compound 2] | <5 | 29 | 2.95 | 78 |  | 99 |  | 0.0871 |
| Cc1csc(CN2CC[C@@H](C)[C@H](c3cc(C(F)F)nc4ncnn34)C2)c1.Cl [Compound 43] | <5 | 0 | 6.92 | 44 |  | 77 | 0.347 |  |
| Cc1cc(C(C)N2CC[C@@H](C)[C@H](c3cc(C(F)F)nc4ncnn34)C2)cc(C)n1 (mixture of isomers) [Compound 1] | <5 | 45 | 2.95 | 74 |  | 100 | 0.0209 |  |
| C[C@@H]1CCN(Cc2cn(C)c3ccccc23)C[C@H]1c1cc(C(F)F)nc2ncnn12.Cl [Compound 35] | <5 | 22 | 7.59 | 53 |  | 102 | 0.0479 |  |
| C[C@@H]1CCN([C@@H](C)c2ccc3ncsc3c2)C[C@H]1c1cc(C(F)F)nc2ncnn12 (single isomer, unassigned) [Compound 13] | ~5.02 | 47 | 1.48 | 85 | 0.0589 | 98 |  |  |
| C[C@@H]1CCN(Cc2cccc(OC(F)(F)F)c2)C[C@H]1c1cc(C(F)F)nc2ncnn12 [Compound 24] |  |  | 7.24 | 58 | 0.692 | 96 |  |  |
| C[C@@H]1CCN(Cc2ccc(F)c(F)c2)C[C@H]1c1cc(C(F)F)nc2ncnn12.Cl [Compound 40] | <5 | 10 | > 10 | 35 |  | 42 |  | 1.12 |
| C[C@@H]1CCN(Cc2nn(C)c3ccccc23)C[C@H]1c1cc(C(F)F)nc2ncnn12 [Compound 48] | <5 | 23 | > 10 | 37 |  | 96 | 0.977 |  |
